Results: patent US20190024193A1, “Sesquiterpene Biosensors and Uses Thereof” (priority 2017, published 2019)

Key:
PB2 bisabolol biosensor = PB2 bisabolol biosensor reporter fluorescence (Gemini reporter, GFP portion) in E. coli EPI300 host cells; type: cell-based, E. coli EPI300 (PB2 insert originating from Pseudomonas); details: E. coli EPI300 with PB2, high (0.01% arabinose) or low copy number
Description: (§1) A metagenomic library made from environmental samples obtained from hots springs, permafrost, sea water, soil, and hydrocarbon resource samples (from soil) was made using the Meta-G-Nome™ DNA Isolation Kit and CopyControl™ Fosmid Library Production Kit obtained from Epicentre. 300-400 fosmid clones from this library were obtained and mixed with a Tn5 transposase and sufficient biosensor construct (FIG. 1) was added to give about 10 biosensor inserts per fosmid. The transposase randomly integrated the biosensor construct into the fosmid vector, and the modified fosmid library with biosensor constructs was transformed into E. coli strain EPI300™ (commercially sold by Epicentre). The E. coli EPI300™ transformed with the modified fosmid library was plated on LB media with 20 μg/ml spectinomycin and 0.01% arabinose.
(§2) These functional biosensors were interrogated with (−)-α-bisabolol and clones that produced reporter fluorescence above control in response to the (−)-α-bisabolol were selected. Two bisabolol positive clones were selected and designated PB2 and PB3. PB2 was obtained from a fosmid with an insert originating from Pseudomonas, and PB3 was obtained from a fosmid with an insert originating from Bradyrhizobium.
(§3) As described above, the copy number of the fosmids with the PB2 biosensor and the PB3 biosensor can by increased in E. coli EPI300™ host cells that are treated with arabinose to induce an increase in copy number of the fosmid. E. coli EPI300™ with the PB2 or PB3 biosensors were treated (high copy number) or not treated (low copy number) with arabinose and then screened for reporter activity (Gemini reporter fluorescence from the GFP portion).
(§4) E. coli EPI300™ with fosmids containing PB2 or PB3 were grown without arabinose (low copy number) and in the presence of spectinomycin (200 μg/ml for PB2 and 500 μg/ml for PB3). The host cells were treated with different concentrations of (−)-α-bisabolol (0.0, 0.1, 0.25, 0.4, 0.5, 1.0 and 1.5 mM). FIGS. 6 and 7 show the fluorescence results for PB2 and PB3. Both biosensors show a dose response between 0.05 and 1.0 mM (−)-α-bisabolol.
(§5) E. coli EPI300™ with fosmids containing PB2 or PB3 were grown with 0.01% arabinose for high copy number of the biosensor, or grown in the absence of arabinose for low copy number of the biosensor, and then treated with a sesquiterpene: (−)-α-bisabolol, squalene, nerolidol, cintonellal, carvone, farnesene, or cineole. PB2 was also tested against linalool and PB3 was tested against ursolic acid.

PB3 bisabolol biosensor = PB3 bisabolol biosensor reporter fluorescence (Gemini reporter, GFP portion) in E. coli EPI300 host cells; type: cell-based, E. coli EPI300 (PB3 insert originating from Bradyrhizobium); details: for response of PB3 biosensor to stimulation with the compound: E. coli EPI300 with PB3, high (0.01% arabinose) or low copy number
Description: as §1, §2, §3, §4, §5

Molecule | response of PB2 biosensor to stimulation with the compound (PB2 bisabolol biosensor) | response of PB3 biosensor relative to (−)-α-bisabolol (PB3 bisabolol biosensor; E. coli EPI300 with PB3, 1 mM nerolidol) | response of PB3 biosensor to stimulation with the compound (PB3 bisabolol biosensor)
C=CC(C)(O)CCC=C(C)CCC=C(C)C (stereo not drawn) [nerolidol] | did not respond above background | comparable activity to PB3 treated with 0.2 mM (−)-α-bisabolol | –
C[C@H]1[C@H](C)CC[C@]2(C(=O)O)CC[C@]3(C)C(=CC[C@@H]4[C@@]5(C)CC[C@H](O)C(C)(C)[C@@H]5CC[C@]43C)[C@H]12 [ursolic acid] | – | – | did not respond above background
C=C(C)C1CC=C(C)C(=O)C1 (stereo not drawn) [carvone] | did not respond above background | – | did not respond above background
CC12CCC(CC1)C(C)(C)O2 [cineole] | did not respond above background | – | did not respond above background
farnesene | did not respond above background | – | did not respond above background
CC(C)=CCC[C@@H](C)CC=O [cintonellal] | did not respond above background | – | did not respond above background
C=CC(C)(O)CCC=C(C)C (stereo not drawn) [linalool] | did not respond above background | – | –
CC(C)=CCC/C(C)=C/CC/C(C)=C/CC/C=C(\C)CC/C=C(\C)CCC=C(C)C [squalene] | did not respond above background | – | did not respond above background
CC(C)=CCC[C@](C)(O)[C@@H]1CC=C(C)CC1 [(−)-α-bisabolol] | high specificity for induction | – | –
